The text below walks through data of paper PMC9919513, “A Practical Approach to Bicyclic Carbamoyl Pyridones with Application to the Synthesis of HIV-1 Integrase Strand Transfer Inhibitors” (Molecules, 2023).

This test deals with HIV-1 vectors bearing the S230N IN mutant. In words: Single-round HIV-1 replication antiviral assay, S230N IN mutant. Type of test: cell-based. To be noted: for EC50: Human immunodeficiency virus 1, HOS, 48 h, read-out: EC50, antiviral potency, S230N IN mutant. An excerpt:
To further evaluate the antiviral activities of select compounds, we determined their EC50 values against the IN mutant S230N, which has been selected in vitro against an early Merck INSTI L810,830, a prototype for naphthyridine analogs.
Human embryonic kidney cell culture cell line 293 was acquired from the American Type Culture Collection (ATCC). The human osteosarcoma cell line, HOS, was obtained from Dr. Richard Schwartz (Michigan State University, East Lansing, MI, USA) and grown in Dulbecco’s modified Eagle’s medium (Invitrogen, Carlsbad, CA, USA) supplemented with 5% (v/v) fetal bovine serum, 5% newborn calf serum, and penicillin (50 units/mL) plus streptomycin (50 µg/mL; Quality Biological, Gaithersburg, MD, USA). The transfection vector, pNLNgoMIVR-ΔLUC was made from pNLNgoMIVR-ΔEnv.HSA by removing the HSA reporter gene and replacing it with a luciferase reporter gene between the NotI and XhoI restriction sites. To produce the new IN mutant S230N used in this study, the IN open reading frame was removed from pNLNgoMIVR-ΔENV.LUC by digestion with KpnI and SalI, and the resulting fragment was inserted between the KpnI and SalI sites of pBluescript KS+. Using that construct as the wild-type template, we prepared the following HIV-1 IN mutant S230N using the QuikChange II XL site-directed mutagenesis kit (Agilent Technologies, Santa Clara, CA, USA) protocol. The following sense oligonucleotides were used with matching cognate antisense oligonucleotides (not shown) (Integrated DNA Technologies, Coralville, IA, USA) in the mutagenesis: S230N 5′-[…]-3′. The DNA sequence of the IN mutant S230N construct was verified independently by DNA sequence determination. The mutated IN coding sequences from pBluescript KS+ were then subcloned into pNLNgoMIVR-ΔEnv.LUC (between the KpnI and SalI sites) to produce mutant HIV-1 constructs, which were also checked by DNA sequencing. […]. On the day prior to transfection, 293 cells were plated on 100 mm diameter dishes at a density of 1.5 × 10^6 cells per plate. Next, 293 cells were transfected with 16 µg of pNLNgoMIVR^-ΔLUC and 4 µg of pHCMV-g (obtained from Dr. Jane Burns, University of California, San Diego) using the calcium phosphate method. At approximately 6 h after the calcium phosphate precipitate was added, 293 cells were washed twice with phosphate-buffered saline (PBS) and incubated with fresh media for 48 h. The virus-containing supernatants were then harvested, clarified by low-speed centrifugation, filtrated, and diluted for preparation in antiviral infection assays. On the day prior to the screen, HOS cells were seeded in a 96-well luminescence cell culture plate at a density of 4000 cells in 100 µL per well. On the day of the screen for cellular cytotoxicity determination, cells were treated with compounds from a concentration range of 250 µM to 0.05 µM and then incubated at 37 °C for 48 h. On the day of the screen for antiviral activity infection assays, cells were treated with compounds from a concentration range of 5 µM to 0.0001 µM using 11 serial dilutions and then incubated at 37 °C for 3 h. After compound incorporation and activation in the cell, 100 µL of virus-stock (WT or mutant) diluted to achieve a luciferase signal between 0.2 and 1.5 Relative Luciferase Units (RLUs) was added to each well and further incubated at 37 °C for 48 h. Cellular cytotoxicity was measured by using the ATP Lite Luminescence detection system and monitored by adding 50 µL of cell lysis buffer from the Luminescence ATP detection assay to each well followed by mixing at 700 rpm at room temperature for 5 min using a compact thermomixer. […]

In the case of `O=C(NCc1ccc(F)cc1F)c1cn2ccn(CCCCCO)c(=O)c2c(O)c1=O` [Compound 6d, N-(2,4-Difluorobenzyl)-9-hydroxy-2-(5-hydroxypentyl)-1,8-dioxo-1,8-dihydro-2H-pyrido [1,2-a]pyrazine-7-carboxamide], the EC50 came to 15.4 nM.

With `O=C(NCc1ccc(F)cc1F)c1cn2c(c(O)c1=O)C(=O)N(CCCCCCO)CC2` [Compound 7c, N-(2,4-Difluorobenzyl)-9-hydroxy-2-(6-hydroxyhexyl)-1,8-dioxo-1,3,4,8-tetrahydro-2H-pyrido [1,2-a]pyrazine-7-carboxamide], the EC50 was found to be 38 nM.

As to `O=C(NCc1ccc(F)cc1F)c1cn2ccn(CCCCCCO)c(=O)c2c(O)c1=O` [Compound 6c, N-(2,4-Difluorobenzyl)-9-hydroxy-2-(6-hydroxyhexyl)-1,8-dioxo-1,8-dihydro-2H-pyrido [1,2-a]pyrazine-7-carboxamide], the EC50 worked out at 9.3 nM.

Take `O=C(NCc1ccc(F)cc1F)c1cn2c(c(O)c1=O)C(=O)N(CCCCO)CC2` [Compound 7e, N-(2,4-Difluorobenzyl)-9-hydroxy-2-(4-hydroxybutyl)-1,8-dioxo-1,3,4,8-tetrahydro-2H-pyrido [1,2-a]pyrazine-7-carboxamide]: the EC50 turned out to be 101 nM. Besides, the “Ratio of the antiviral potencies after and before hydrogenation (S230N)” value (EC50 of saturated 7 over EC50 of unsaturated 6, S230N IN) came out at 3.28.

As for `O=C(NCc1ccc(F)cc1F)c1cn2ccn(CCCCO)c(=O)c2c(O)c1=O` [Compound 6e, N-(2,4-Difluorobenzyl)-9-hydroxy-2-(4-hydroxybutyl)-1,8-dioxo-1,8-dihydro-2H-pyrido [1,2-a]pyrazine-7-carboxamide], the EC50 amounted to 30.7 nM.
